Entries after “also recorded” stand apart in the source; their conditions may differ.
Legend:
[1] = system: fatigue symptomatology after COVID infection; assay: Off-label therapy case descriptions (cases 1 to 3) of fatigue symptomatology after COVID infection; format: in vivo, human
Protocol: (§1) Pyridine-3,4-diamine Amifampridine (formulation as finished drug) was administered in the below-mentioned application examples. As part of the double-blind study, capsules that look the same with Amifampridine or placebo were prepared blind by a pharmacy, whereby only the pharmacy knew which capsules contained active ingredient or placebo.
The following laboratory and ECG controls for detecting substance-associated complications were inconspicuous.
In case 3, a patient is described, who suffered from fatigue symptomatology with a need for sleep of up to 2×9 hours per day, after being infected with COVID twice.

[2] = system: LEMS patients; conditions: cited from earlier work
[3] = system: fatigue symptomatology after SARS-CoV-2 infection; assay: Patients 2.1 to 2.5: Bell score and cumulative sleep time in 24 h with and without Amifampridine; format: in vivo, human; conditions: for Bell score, long term: long-term medication, daily dose 20 mg to 25 mg, 5 mg each at an interval of 4 hours
Excerpt: (§2) The Bell-score (or scale) is a measure of the impediment in the case of ME & CFS. It is also suitable for long COVID patients. The Bell scale is individual because each patient has a different stress tolerance and suffering from severe symptoms at rest can be relatively different. • 100 No symptoms at rest; no symptoms with physical stress; a normal overall activity level; able to work full-time without any difficulties. • 90 No symptoms at rest; mild symptoms with physical and mental stress; a normal overall activity level; able to work full-time without any difficulties. • 80 Mild symptoms at rest; the symptoms intensify due to stress; a slight performance limitation noticeable only with activities, which are strenuous; able to work full-time in jobs, which require exertion of force, with difficulties. • 70 Mild symptoms at rest; significant limitations noticeable in the daily activities; the functional state is a total of about 90% of the norm—with the exception of activities, which require an exertion of force; able to work full-time with difficulties. • 60 Mild symptoms at rest; significant limitations in the daily activities; the functional state is a total of about 70%-90% of the norm; unable to work a full-time job if physical work is required there; however, able to work full-time if it is light work and the hours of work can be handled flexibly. • 50 Moderate symptoms at rest; moderate to severe symptoms in response to physical stress or activity; the functional state is reduced to 70% of the norm; unable to perform strenuous work, but able to perform light work or desk work for 4-5 hours daily, whereby rest periods are required. • 40 Moderate symptoms at rest; moderate to severe symptoms in response to stress or activity; the functional state is reduced to 50%-70% of the norm; unable to perform strenuous work, but able to perform light work or desk work for 3-4 hours daily, whereby rest periods are required. • 30 Moderate to severe symptoms at rest; severe symptoms in response to any stress or activity; the functional state is reduced to 50% of the norm; generally housebound; unable to perform strenuous work, but able to perform light work or desk work for 2-3 hours daily, whereby rest periods are required. • 20 Moderate to severe symptoms at rest; severe symptoms in response to any stress or activity; the functional state is reduced to 30%-50% of the norm, except for rare exceptions, unable to leave the house; bedridden for the majority of the day; unable to concentrate for more than one hour per day. • 10 Severe symptoms at rest; bedridden most of the time; leaving the house is not possible; significant cognitive symptoms, which make it impossible to concentrate. • 0 Constant severe symptoms; always bedridden; unable to perform the simplest care measures.
The following dosages of patients 2.1 to 2.5 and the changed Bell score values as well as the need for sleep in hours are illustrated in FIGS. 1 and 2 (FIG. 1 Bell-score with and without Amifampridine, patients 2.1 to 2.5, FIG. 2: cumulative sleep time in 24 h).
In the case of pat. 2.1, a psychotherapist without internal or neurological preexisting conditions, fluctuating fatigue symptomatology with a Bell score between 20 and 40 as well as increased need for sleep with 12 hours/24 h occurred after SARS-CoV-2 infection in May of 2022. After taking 5 mg of Amifampridine once, there was complete convalescence with a Bell score of 100, the need for sleep reduced to 7 hours/24 h.
After withdrawal trials (three days no Amifampridine) with recurrent fatigue, a long-term medication with a daily dose of 20 mg to 25 mg of 5 mg each at an interval of 4 hours occurred, whereby the Bell score is permanently from 90 to 100. This Bell score value can already be maintained for three quarters of a year. Taken from morning to night before going to sleep.
In the case of pat. […]

[4] = system: fatigue symptomatology in post-COVID syndrome (PCS); assay: Further study (case series, pat. 1 to 5): Bell score and need for sleep in post-COVID syndrome under Amifampridine; format: in vivo, human
Excerpt: as §2
A further study was performed on a patient group. A reduced fatigue symptomatology was determined in this study as well in the case of post-COVID syndrome under Amifampridine.
The prevalence of a post-COVID syndrome (PCS) is 10-15% after SARS-CoV-2 infection, a large variety of functional symptoms appear in addition to specific organ diseases, predominantly a fatigue symptomatology. The latter is characterized by persistent tiredness, weakness, cognitive deficits as well as increased need for sleep. […] The Bell score, which focusses on the limitation of the vigilance, physical endurance and job, was used for the evaluation. • In the case of pat. 1 of the further study, a previous Zn. EBV infection is known, otherwise no internal or neurological preexisting conditions. Fluctuating fatigue symptomatology after SARS-CoV-2 infection in May of 2022 with a Bell score between 20 and 40, increased need for sleep with 12 hours/24 h. After taking 5 mg of Amifampridine three times within 24 h (h: hours), there was complete convalescence with a Bell score of 100, the need for sleep reduced to 7 hours/24 h. Withdrawal trials ended in a fatigue again. • In the case of pat. […]

[5] = system: fatigue after SARS-CoV-2 infection; assay: Double-blind withdrawal trial (verum/placebo, 3 days each) in pat. 2.1 and 2.2; format: in vivo, human; conditions: at start of the double-blind trial, already on Amifampridine (4 times 5 mg per day)
Protocol: as §1
In the case of pat. 2.1 and 2.2, a long-term medication with 20 mg of Amifampridine each per day were required for reconvalescence and thus offered prerequisites for a double-blind withdrawal trial for 3 days each.
Pat. 2.1 with verum on days 1-3, followed by placebo on days 4-6:
Pat. (pat. 2.1) with Bell score 90 already started with Amifampridine, as described above, and continued this with blister with […] each day, one drawer with capsules for 3 days with 4 times 5 mg of Amifampridine each. The dosage for 3 days each was placebo with 4 times placebo capsules each for patient 1 and 2 (verum and placebo).
Pat. 2.1: verum on days 1-3, followed by placebo on days 4-6: reduction of the Bell score to minimally 30 in the placebo phase, increased sleep time to 10.5 hours (FIG. 3: pat. 2.1, Bell score (line with squares with side lines of the squares parallel and perpendicular to the main line; sleep time/24 h (line with smaller squares, tips of squares point upwards/downwards as well as to the right and left). […]

[6] = system: MS patients; conditions: described in the literature; cited from earlier work
[7] = pat. 2.5 (LEMS), 60 mg, later 70 mg per day (3 times 20 mg, optionally additional 5 mg)
[8] = pat. 2.5 (LEMS), initial administration of 3×5 mg
[9] = pat. 5 (LEMS), 5 mg three or four times as daily dose

Q: Which muscular deficits ([1]; case 1) does the source give for `Nc1ccncc1N` [Amifampridine, Pyridine-3,4-diamine] here?
A: immediate improvement of the muscular deficits

Q: What about the “serious fatigue symptomatology existing since the COVID infection” value ([1]; case 1, need for sleep or rest up to 20 hours per day before) of the same compound?
A: sudden improvement

Q: And the “laboratory and ECG controls for detecting substance-associated complications” value ([1]; case 2)?
A: inconspicuous

Q: What about the ability to concentrate ([1]; case 2, 5 mg of Amifampridine) of the same compound?
A: complete restitution of the ability to concentrate

Q: What about the assignable side effects ([1]; case 2, 5 mg of Amifampridine) of the same compound?
A: Slight perioral paresthesias

Q: What about the fatigue symptomatology ([1]; case 2, 5 mg of Amifampridine) of the same compound?
A: complete improvement of the fatigue symptomatology

Q: What about the existing fatigue ([1]; case 2, daily dose of 3×5 mg) of the same compound?
A: ceases completely

Q: What about the ability to concentrate ([1]; case 3, 5 mg of Amifampridine) of the same compound?
A: sudden improvement of the ability to concentrate

Q: And the side effects ([1]; case 3, 5 mg of Amifampridine)?
A: Transient perioral paresthesias with very low intensity

Q: What about the “need for sleep and rest” value ([1]; case 3, 5 mg of Amifampridine, before up to 2×9 hours per day) of the same compound?
A: physiological need for sleep and rest

Q: And the “co-indicated / coincident fatigue of LEMS patients” value ([2]; LEMS patients)?
A: improvement of a co-indicated fatigue

Q: And the need for sleep ([3]; pat. 2.1, after taking 5 mg once, before 12)?
A: 7 hours/24 h

Q: And the Bell score ([3]; pat. 2.1, after taking 5 mg once, before 20 to 40)?
A: 100

Q: And the “Bell score, long term” value ([3]; pat. 2.1, held for three quarters of a year)?
A: 90 to 100

Q: What about the “duration of the effect” value ([3]; pat. 2.2, after taking 5 mg) of the same compound?
A: about 36 hours

Q: And the need for sleep ([3]; pat. 2.2, after taking 5 mg, before 11-12 hours/24 h)?
A: 7 to 9 h

Q: What about the Bell score ([3]; pat. 2.2, after taking 5 mg, before 40) of the same compound?
A: 80

Q: What about the “Bell score, long term” value ([3]; pat. 2.2, past month) of the same compound?
A: 90 to 100

Q: And the vigilance ([3]; pat. 2.3, after 5 mg)?
A: unlimited vigilance

Q: What about the need for sleep ([3]; pat. 2.3, after 5 mg, before 12) of the same compound?
A: 7.5 hours/24 h

Q: And the Bell score ([3]; pat. 2.3, after 5 mg, before 40)?
A: 100

Q: And the “Bell score with regard to fatigue” value [3, 7]?
A: 70 to 80

Q: What about the “Bell score with regard to the muscular deficits” value [3, 7] of the same compound?
A: approx. 20

Q: And the fatigue [3, 8]?
A: the fatigue ceased

Q: What about the muscular endurance [3, 8] of the same compound?
A: improved muscular endurance

Q: And the Bell score ([3]; pat. 2.5 (LEMS), initial administration of 3×5 mg, before 10)?
A: 80

Q: And the need for sleep ([3]; pat. 2.5 (LEMS), initial administration of 3×5 mg, before 16-18)?
A: 8-9 hours/24 h

Q: What about the Bell score ([3]; patient 2.4 (post-COVID myocarditis), after 5 mg, before 20) of the same compound?
A: 50

Q: What about the need for sleep ([3]; patient 2.4, after 5 mg, before 12-14) of the same compound?
A: 8 to 10 hours/24 h

Q: And the need for sleep ([4]; pat. 1, after 5 mg three times within 24 h, before 12)?
A: 7 hours/24 h

Q: What about the Bell score ([4]; pat. 1, after 5 mg three times within 24 h, before 20 to 40) of the same compound?
A: 100

Q: And the vigilance ([4]; pat. 2, after 5 mg three times)?
A: unlimited vigilance

Q: What about the need for sleep ([4]; pat. 2, after 5 mg three times, before 12) of the same compound?
A: 7.5 hours/24 h

Q: What about the Bell score ([4]; pat. 2, after 5 mg three times, before 40) of the same compound?
A: 100

Q: And the “duration of the effect” value ([4]; pat. 3, after taking 5 mg)?
A: about 36 hours

Q: What about the need for sleep ([4]; pat. 3, after taking 5 mg, before 11 to 12 hours/24 h) of the same compound?
A: 7 to 9 h

Q: What about the Bell score ([4]; pat. 3, after taking 5 mg, before 40) of the same compound?
A: 100

Q: What about the Bell score ([4]; pat. 4 (post-COVID myocarditis), 5 mg three times within 24 h, before 20) of the same compound?
A: 50

Q: And the need for sleep ([4]; pat. 4, 5 mg three times within 24 h, before 12 to 14)?
A: 8 to 10 hours/24 h

Q: And the fatigue [4, 9]?
A: the fatigue ceased

Q: And the muscular endurance [4, 9]?
A: improved muscular endurance

Q: And the need for sleep ([4]; pat. 5 (LEMS), 5 mg three or four times as daily dose, before 16 to 18)?
A: 8-9 hours/24 h

Q: And the Bell score [5]?
A: 90

Q: Which “coincident fatigue with LEMS” value ([2]; as phosphates, 20 to 80 mg as daily doses, J Clin Neuromuscul Dis. 2019) does the source give for Amifampridine Phosphate here?
A: Improvement of a coincident fatigue

Q: Which “accompanying fatigue symptomatology in MS patients” value [6] does the source give for `Nc1ccncc1` [Fampridine] here?
A: improvement of an accompanying fatigue symptomatology; also recorded: favorable effects

From patent publication US20250152566A1 (priority 2023, published 2025)
